Results published in patent US20240400572A1, “COMPOUNDS AND METHODS FOR TREATING CANCERS THAT ARE MGMT DEFICIENT REGARDLESS OF MMR STATUS” (Yale University, priority 2021, published 2024).
“Also recorded” adds a separate entry of the source.

What was measured:
[1] = test system: LN229 MGMT+/−, MMR+/− cells; assay: Clonogenic cell survival assay; conditions: cell status given in the value
Method: Cells were trypsinized, washed, counted, and diluted in a medium containing various concentrations of drug. They were then immediately seeded in six-well plates in triplicate at three-fold dilutions, ranging from 9000 to 37 cells per well. Depending on colony size, these plates were kept in the incubator for 10 to 14 days. After incubation, colonies were washed in phosphate-buffered saline (PBS), stained with crystal violet, counted, and quantified.

[2] = test system: LN229 MGMT−/MMR+ and LN229 MGMT−/MMR− (or MGMT−/MSH6−) flank tumors; assay: Murine flank tumor models; assay type: in vivo; conditions: for median OS: Kaplan-Meier
Method: Mouse Protocols for Flank Studies. A mouse tumor model was established by subcutaneously implanting human LN229 (MGMT−/MMR+) or LN229 (MGMT−/MMR−) cells. Cells were cultured as a monolayer in DMEM+10% FBS (Thermo Fisher) at 37° C. in a humidified atmosphere with 5% CO2 and passaged between one and three days prior to implantation and media was replaced every 2-3 days as needed to maintain cell viability. Cells were not allowed to exceed 80% confluency. On the day of implantation, cells were trypsinized, washed with complete media and pelleted by centrifugation at 1200 rpm for 5 minutes. The supernatant was decanted, and cells were washed three times with sterile PBS and pelleted by centrifugation. During the final centrifugation, viability was determined using trypan blue exclusion. Cells were resuspended in sterile PBS and diluted 1:1 in Matrigel (Corning, Cat #47743-716) for a final concentration of 5×10^6 cells/100 μL. 5 million cells were injected into the flank of female nude mice (Envigo, Hsd:Athymic Nude-Foxn1^nu, 3-4 weeks age, 15 g). Once tumors reached a minimum volume of 100 mm^3, mice were randomized and administered either KL-50 (4a; 5 mg/kg MWF×3 weeks), TMZ (1a; 5 mg/kg MWF×3 weeks), or vehicle (10% cyclodextrin) by oral gavage. Caliper measurements were obtained during the dosing period and at least two weeks following treatment. Mice were euthanized if body weight loss exceeded 20% or if tumor volume increased to greater than 2000 mm^3. Kaplan-Meier analysis was used to evaluate survival rate based on death or removal from study.
In a second study, mice were randomized and administered either KL-50 (4a) or vehicle (10% cyclodextrin) by oral gavage or intraperitoneal injection on either M-F×1 or MWF×3 cycles at 5, 15, or 25 mgs/kg. Caliper measurements were obtained during the dosing period and at least two weeks following treatment. Mice were euthanized if body weight loss exceeded 20% or if tumor volume increased to greater than 2000 mm^3.
The third study involved MGMT−/MMR+ and MGMT−/MSH6− (shMSH6) LN229 cells. Mice tumors were allowed to grow to a larger average starting volume of ˜350 mm^3 before they were randomized and administered either KL-50 (4a; 25 mg/kg MWF×3 weeks) or vehicle (10% cyclodextrin) by oral gavage. Caliper measurements were obtained during the dosing period and at least two weeks following treatment. Mice were euthanized if body weight loss exceeded 20% or if tumor volume increased to greater than 3000 mm^3.

[3] = LN229 MGMT−/MMR− flank tumor-bearing mice, 5 mg/kg P.O. MWF×3 weeks

| Structure (SMILES) | clonogenic survival (in words) [1] | tumor growth, MGMT−/MMR+ flank tumors (in words) ([2]; 5 mg/kg P.O. MWF×3 weeks) | tumor growth, MGMT−/MMR− flank tumors (in words) ([2]; 5 mg/kg P.O. MWF×3 weeks) | increase in median OS vs TMZ [2, 3] | median OS [2, 3] | body weight (in words) ([2]; LN229 flank tumor experiments, 5 mg/kg P.O. MWF×3 weeks) | efficacy and toxicity over regimens (in words) ([2]; MGMT−/MMR+ and MGMT−/MMR− flank tumors, 5, 15, 25 mg/kg, MWF×3 weeks or M-F×1 week, PO or IP) | growth of large tumors (in words) ([2]; ~350-400 mm^3 MGMT−/MMR+ and MGMT−/MSH6− tumors, 25 mg/kg PO MWF×3 weeks) |
| --- | --- | --- | --- | --- | --- | --- | --- | --- |
| NC(=O)c1ncn2c(=O)n(CCF)nnc12 [KL-50, 3-(2-fluoroethyl)-4-oxo-3H,4H-imidazo[4,3-d][1,2,3,5]tetrazine-8-carboxamide] | robust antitumor activity in MGMT− cells, independent of MMR status; also recorded: minimal toxicity to MGMT+ cells at doses up to at least 200 μM | statistically non-inferior to TMZ (1a) | potently suppressed tumor growth | greater than 5 week | greater than 15 weeks | no significant changes in body weight | effective and non-toxic; also recorded: equal efficacy with no observable increases in toxicity | potently suppressed the growth |
| Cn1nnc2c(C(N)=O)ncn2c1=O [TMZ, temozolomide, reference compound] | negligible activity in MGMT+LN229 cells, irrespective of MMR status; also recorded: robust tumor cell killing in MGMT−, MMR+ cells that was abolished in isogenic cells lacking MMR | suppressed tumor growth | no efficacy |  | 10 weeks |  |  |  |
